pEC50: −log10 of the molar value.
Legend:
5×FAD mice = test: In vivo efficacy in 5×FAD mice
Protocol: FIGS. 6A-6E. 2-month-old 5×FAD mice were treated with TP70 or vehicle for 6 weeks as described in the text. Four cortical sections evenly distributed through the cerebrum were taken from one hemisphere of each mouse (6 mice in each treatment group) and fluorescently stained with the amyloid dye FSB (blue) and the nuclear dye propidium iodide (PI, red). A: Representative sections that show the PI stain. B: Representative sections that only show the FSB stain. C: Fluorescent staining was objectively quantified by LSC. […] E: A representative Western blot containing the soluble fractions of three mice of each group was analyzed for soluble Aβ dimer (see ref 59 for the method).
Although the mechanism of neuron loss in Alzheimer's disease (AD) remains elusive, it is associated with cerebral accumulation of Aβ42. The 5×FAD mouse model of amyloid deposition expresses five familial AD (FAD) mutations that are additive in driving Aβ42 overproduction.

[1] = Cerep in vitro profiling (protein binding, absorption, metabolic stability, off target activity); format: in vitro ADME; conditions: Caco-2, P-gp, human liver microsomes, CYPs, HepG2 viability, hERG
[2] = Plasma concentration after 7 days of TP70 in drinking water, APP/PS1 mice; format: in vivo; conditions: after 7 days in drinking water
Excerpt: The validated SmartCage™ system that enables automated, objective, quantitative and long-term evaluation of neuropsychological endpoints at the animal's home cages (Flores, et al., IEEE Trans Biomed Eng, 2007, 54:225-233; Xiong, et al., Stroke, 2011, 42:2026-2032; Carter, et al., Nat Neurosci, 2010, 13:1526-1533; Khroyan, et al., Clin Exp Pharmacol Physiol, 2012, 39:614-622) was used to complement other special individual learning and memory tests (Shineman, et al., Alzheimers Res Ther, 2011, 3:28; Hamann, et al., Neuropsychologia, 2002, 40:1187-1195; Aultman, et al., Psychopharmacology (Berl), 2001, 153:353-364; Ashe, K H, J Alzheimers Dis, 2006, 9:123-126). The SmartCage was able to reveal the behavioral phenotypes of a mouse stroke model of middle cerebral artery occlusion (MCAO) (Xiong, et al., Stroke, 2011, 42:2026-2032) and a hypocretin/orexin neuron degeneration model (orexin/ataxin-3) (Xie, et al., J Clin Invest, 2008, 118:2471-2481; Aultman, et al., Psychopharmacology (Berl), 2001, 153:353-364; Hara, et al., Neuron 2001, 30:345-354). […] These validated protocols were applied to PK/PD studies on TP70 in one more AD transgenic model, APP/PS1 mice, which express mutant APPs in combination with mutant PS1. […] Homecage activity and locomotion were assessed on Day 7 after the treatment and the blood samples were collected from each mouse after the assessment of general behavior. […]

[3] = Plasma and organ distribution after ip administration in mice; format: in vivo; conditions: 25 mg/kg ip
Protocol: FIG. 4. Concentrations or content of TP70 in the plasma and 7 key organs following ip administration of TP70 (25 mg/kg) in mice (n=3 each data point).
In addition to determination of drug concentrations in plasma and the brain, drug content in other six key organs, the heart, liver, lungs, intestine, and kidneys of mice (male C57BL/6, 3 months, Harlan, n=3 per timepoint) were also assessed in a separate pharmacokinetic (PK) study of TP70 (25 mg/kg, ip,) using HPLC and mass spectrometry.

[4] = log P by octanol/water partition; format: physicochemical
[5] = Plasma and brain concentrations after i.v. administration in mice; format: in vivo
Protocol: FIGS. 3A-3B. FIG. 3A. CP2 and TP70 plasma and brain concentrations following i.v. injection in mice (n=3). FIG. 3B. […] The drug concentration was determined using HPLC and mass spectrometry.
HPLC/mass spectrometry were employed to quantify CP2 and TP70 in the plasma and brain after i.v. administration in mice. The CP2 concentration was 200-300 μM in the mouse brain between 0.5 and 2 h following 25 mg/kg i.v. administration (FIG. 3A). Similarly, TP70 concentration reached 190 μM in plasma at 5 min and 160 μM in brain at 2 h following 25 mg/Kg i.v. administration (FIGS. 3A and 3B).

[6] = test system: ABCA1 cholesterol transporter gene; test: Increase of ABCA1 cholesterol transporter gene; format: cell-based
Excerpt: It has been reported that an induction of cholesterol efflux resulting in a reduction of Aβ formation/deposition in vitro and in vivo (Kim, et al., J Alzheimers Dis, 2009, 16:121-131). For additional Detail, see the attached manuscript entitled, “Inhibition of Acyl-CoA: Cholesterol Acyltransferase (ACAT), Overexpression of Cholesterol Transporter Gene, and Protection of Amyloid β (Aβ) Oligomers-Induced Neuronal Cell Death by Tricylic Pyrone Molecules” which is incorporated herein.

## Cc1cc2c(c(=O)o1)C=C1CCC(C(C)CNCc3ccc(O)cc3)CC1O2 (stereo not shown) [TP70]
5×FAD mice; 2-month-old 5×FAD mice, 6 weeks oral treatment, versus vehicle, LSC
  plaque count (FSB stain), cortical sections: substantial reduction of plaque count
5×FAD mice; 2-month-old 5×FAD mice, 6 weeks treatment, versus vehicle, LSC
  nuclear count (PI stain), cortical sections: no difference in nuclear count
5×FAD mice; 5×FAD mice
  cerebral amyloid load: substantially reduce
  drug toxicity during the course of treatment: no apparent drug toxicity
  histopathology, hematological counts, and blood chemistry at necropsy: No abnormalities
  levels of toxic Aβ dimers: substantially reduce
[1]
  druggable profile versus currently used drugs or reference compounds: druggable profiles better or similar to several currently used drugs or reference compounds
[2]
  plasma TP70 concentration: 1.7 ± 0.5 mg/L
  plasma TP70 concentration (equivalent): 4.3 µM
[3]
  distribution in the heart: lowest distribution in the heart
[3]; mice
  distribution in the brain: higher distribution in the brain than in the plasma and all other organs examined, except for kidneys
[3]; two hours post dosing
  disposition in the kidneys: highest disposition in the kidneys
  distribution in intestines: low distribution in intestines
[4]
  log P: 1.90
[5]; brain at 2 h, 25 mg/Kg i.v.
  brain concentration: 160 µM
[5]; i.v., mice
  CNS penetration: good CNS penetration
[5]; plasma at 5 min, 25 mg/Kg i.v.
  plasma concentration: 190 µM
[5]; plasma, i.v., 3-compartment model fit
  elimination t½: 2.5 h
[6]
  pEC50: 5.96
